Reference: PubChem BioAssay (NCI)
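Results reflect a 48-hour exposure of cells in 96-well plates to compound at five concentrations. GI50: concentration for 50% inhibition of growth. TGI marks complete inhibition of growth.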

Key:
Assay in all cases: NCI-60 cell line screen, 48 h
MOLT-4 leukemia = test system: MOLT-4 leukemia
SF-295 CNS = test system: SF-295 CNS
MCF7 breast = test system: MCF7 breast
OVCAR-5 ovarian = test system: OVCAR-5 ovarian
A549 NSCLC = test system: A549 NSCLC
TK-10 renal = test system: TK-10 renal
IGROV1 ovarian = test system: IGROV1 ovarian
OVCAR-8 ovarian = test system: OVCAR-8 ovarian
SF-268 CNS = test system: SF-268 CNS
CCRF-CEM leukemia = test system: CCRF-CEM leukemia

Row | Compound | TGI (MOLT-4 leukemia) | TGI (SF-295 CNS) | TGI (MCF7 breast) | TGI (OVCAR-5 ovarian) | TGI (A549 NSCLC) | TGI (TK-10 renal) | TGI (IGROV1 ovarian) | TGI (OVCAR-8 ovarian) | TGI (SF-268 CNS) | TGI (CCRF-CEM leukemia) | GI50 (MOLT-4 leukemia) | GI50 (SF-295 CNS) | GI50 (MCF7 breast) | GI50 (OVCAR-5 ovarian) | GI50 (A549 NSCLC) | GI50 (TK-10 renal) | GI50 (IGROV1 ovarian) | GI50 (SF-268 CNS) | GI50 (OVCAR-8 ovarian) | GI50 (CCRF-CEM leukemia)
1 | O=C(O)c1ccccc1-c1ccccc1C(=O)Nc1ccc2c(c1)Cc1cc(F)ccc1-2 | > 100 µM | 94.2 µM | 85.5 µM | 88.1 µM | 85.9 µM | 90.9 µM | > 100 µM | > 100 µM | > 100 µM | – | – | – | – | – | – | – | – | – | – | –
2 | COC(=O)C12C3C4C5(C(=O)OC)C(C1C35C(=O)N(C(C)C)C(C)C)C42C(=O)N(C(C)C)C(C)C (stereo not given) | > 50 µM | > 50 µM | – | > 50 µM | > 50 µM | > 50 µM | > 50 µM | > 50 µM | > 50 µM | > 50 µM | – | – | – | – | – | – | – | – | – | –
3 | O=C(/C=C/c1c(O)ccc2ccccc12)c1ccc2ccccc2c1 | > 100 µM | > 100 µM | – | > 100 µM | > 100 µM | > 100 µM | > 100 µM | > 100 µM | > 100 µM | > 100 µM | – | – | – | – | – | – | – | – | – | –
4 | O=C(CCC(=O)Nc1cccc(Cl)c1)CC(=O)c1ccc(Cl)cc1 | > 100 µM | > 100 µM | – | > 100 µM | > 100 µM | > 100 µM | > 100 µM | > 100 µM | > 100 µM | – | – | – | – | – | – | – | – | – | – | –
5 | N#C/C(=C\c1ccc(O)c(O)c1)C(N)=O | 38.6 µM | > 100 µM | – | > 100 µM | > 100 µM | > 100 µM | > 100 µM | > 100 µM | > 100 µM | 37.7 µM | – | – | – | – | – | – | – | – | – | –
6 | CC1=C(C(=O)Nc2c(C)cccc2C)C(c2ccccc2Cl)C(C(=O)Nc2c(C)cccc2C)=C(C)N1 | > 100 µM | > 100 µM | – | > 100 µM | > 100 µM | > 100 µM | > 100 µM | > 100 µM | > 100 µM | > 100 µM | – | – | – | – | – | – | – | – | – | –
7 | N#CC(/C(=N/NC(=O)C(=O)NN)C(=O)NC12CC3CC(CC(C3)C1)C2)c1ccccc1 (stereo not given) | > 100 µM | > 100 µM | – | > 100 µM | > 100 µM | > 100 µM | > 100 µM | > 100 µM | > 100 µM | > 100 µM | – | – | – | – | – | – | – | – | – | –
8 | CCCCCc1c(C)[nH]c(/C=C2\N=C(c3ccc[nH]3)C=C2CC)c1C | 0.108 µM | 0.0363 µM | 0.106 µM | 0.785 µM | 0.0846 µM | 0.166 µM | 0.163 µM | – | 0.802 µM | – | < 0.01 µM | < 0.01 µM | 0.0208 µM | 0.0179 µM | < 0.0125 µM | < 0.0155 µM | 0.0268 µM | < 0.01 µM | – | –
9 | CC(C)(C)N1CC2(CCCCC2)C1=O | > 100 µM | > 100 µM | – | > 100 µM | > 100 µM | > 100 µM | > 100 µM | > 100 µM | > 100 µM | > 100 µM | – | – | – | – | – | – | – | – | – | –
10 | COc1ccc(C(=O)C(CO)Oc2ccccc2OC)cc1OC (stereo not given) | > 100 µM | > 100 µM | – | > 100 µM | > 100 µM | > 100 µM | > 100 µM | > 100 µM | > 100 µM | > 100 µM | – | – | – | – | – | – | – | – | – | –
11 | CC(=O)OCC1OC([S-])C(OC(C)=O)C(OC(C)=O)C1OC(C)=O.CC[PH+](CC)CC.CC[PH+](CC)CC.[Au].[Au] (stereo not given) | 0.52 µM | 1.63 µM | – | 2.96 µM | 4 µM | 1.69 µM | 1.09 µM | 1.52 µM | 0.669 µM | 0.277 µM | 0.163 µM | 0.436 µM | – | 1.59 µM | 1.72 µM | 0.717 µM | 0.306 µM | 0.207 µM | 0.371 µM | 0.0748 µM
12 | O=C(O)c1cccc(OCCO)c1 | > 100 µM | > 100 µM | > 100 µM | > 100 µM | > 100 µM | > 100 µM | > 100 µM | > 100 µM | > 100 µM | – | – | – | – | – | – | – | – | – | – | –
13 | CN=NN(C)C(=O)NC | > 100 µM | > 100 µM | – | > 100 µM | > 100 µM | > 100 µM | > 100 µM | > 100 µM | > 100 µM | > 100 µM | – | – | – | – | – | – | – | – | – | –
14 | O=C(/C=C/c1ccccc1)/C=C/c1ccccc1 | 86.5 µM | > 100 µM | – | > 100 µM | > 100 µM | > 100 µM | 66.5 µM | – | 66.4 µM | > 100 µM | – | – | – | – | – | – | – | – | – | –
15 | CC(=O)Oc1ccccc1C(=O)N=C1[Se]CCCN1C(=O)c1ccccc1OC(C)=O | 4.96 µM | – | 10.8 µM | 8.66 µM | 3.69 µM | 3.81 µM | 11.6 µM | – | – | – | 1.92 µM | – | 2.79 µM | 3.25 µM | 1.85 µM | 1.87 µM | 2.83 µM | – | – | –
16 | N#CC(C#N)=c1[nH]c2cccc3c2-c2c(cccc2c3=C(C#N)C#N)[nH]1 | > 100 µM | > 100 µM | – | > 100 µM | > 100 µM | > 100 µM | > 100 µM | > 100 µM | > 100 µM | > 100 µM | – | – | – | – | – | – | – | – | – | –
17 | O/N=C\c1c(O)ccc2ccccc12 | – | > 100 µM | > 100 µM | > 100 µM | > 100 µM | > 100 µM | – | > 100 µM | > 100 µM | > 100 µM | – | – | – | – | – | – | – | – | – | –
18 | c1ccc2c3ccn4cc5c(cc4c-3nc2c1)CCCC5 | 12.5 µM | 10.5 µM | 11 µM | 19.3 µM | 32.6 µM | 26 µM | – | 51.2 µM | 14.4 µM | > 100 µM | 2.45 µM | 2.37 µM | 2.5 µM | 4.49 µM | 9.19 µM | 12.8 µM | – | – | 3.62 µM | 3.52 µM
19 | Nc1c(C(=O)N/N=C/c2ccc(-c3ccc(Cl)cc3)o2)cnn1-c1ccnc2c(C(F)(F)F)cccc12 | > 100 µM | > 100 µM | > 100 µM | > 100 µM | > 100 µM | > 100 µM | > 100 µM | – | > 100 µM | – | 50.8 µM | > 100 µM | > 100 µM | > 100 µM | 83.9 µM | > 100 µM | > 100 µM | > 100 µM | – | –
20 | CCN(CC)CCNCC(=O)Oc1ccc(/C=C/C(=O)CC(=O)/C=C/c2ccc(OC(=O)CNCCN(CC)CC)c(OC)c2)cc1OC | > 100 µM | 22.2 µM | 18 µM | 15.1 µM | 39.8 µM | 23.5 µM | 8.94 µM | 15 µM | > 100 µM | – | 5.14 µM | 5.55 µM | 2.58 µM | 3.83 µM | 6.73 µM | 6.72 µM | 4.04 µM | 3.68 µM | 3.69 µM | –
